Measurements as given in ChEMBL document CHEMBL4304783, “Discovery of a Novel Selective Dual Peroxisome Proliferator-Activated Receptor α/δ Agonist for the Treatment of Primary Biliary Cirrhosis” (ACS Med Chem Lett, 2019).
Activity calls are given as the source filed them. The rule behind the calls is not given here.

Assays:
[1] = biological target: T1, Peroxisome proliferator-activated receptor alpha (Homo sapiens, UniProt Q07869); experiment: Agonist activity at PPARalpha (unknown origin) incubated for 3 to 16 hrs by pathhunter nuclear hormone receptor assay
T1 sequence (Q07869 whole entry): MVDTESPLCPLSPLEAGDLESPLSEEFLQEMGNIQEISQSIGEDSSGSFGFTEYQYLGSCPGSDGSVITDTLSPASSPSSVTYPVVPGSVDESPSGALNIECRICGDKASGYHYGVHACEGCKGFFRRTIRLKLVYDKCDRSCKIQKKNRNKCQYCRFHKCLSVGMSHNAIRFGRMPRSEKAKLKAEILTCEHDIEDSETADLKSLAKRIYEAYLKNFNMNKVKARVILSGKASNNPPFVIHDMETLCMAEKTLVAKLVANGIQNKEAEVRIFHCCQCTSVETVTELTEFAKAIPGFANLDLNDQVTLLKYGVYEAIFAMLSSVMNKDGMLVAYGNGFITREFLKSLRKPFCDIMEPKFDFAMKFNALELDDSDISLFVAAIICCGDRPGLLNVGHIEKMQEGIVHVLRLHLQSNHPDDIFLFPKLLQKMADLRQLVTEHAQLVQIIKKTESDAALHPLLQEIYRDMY

[2] = biological target: T2, Peroxisome proliferator-activated receptor alpha (Homo sapiens) (UniProt Q07869); experiment: Agonist activity at PPARalpha (unknown origin) incubated for 3 to 16 hrs by pathhunter nuclear hormone receptor assay relative to GW7647; parameters: concentration or dose not given beside the values
T2 sequence (whole entry): T1 sequence (Q07869 whole entry)

Rattus norvegicus [3] = experiment: Hepatoprotective activity in Sprague-Dawley rat assessed as reduction in ANIT-stimulated inflammatory score at 30 mg/kg, ig administered for 8 days by hematoxylin and eosin staining based mopho-metric analysis; type: functional, organism-based
Rattus norvegicus [4] = experiment: Hepatoprotective activity in Sprague-Dawley rat assessed as reduction in ANIT-stimulated total bilirubin level at 30 mg/kg, ig administered for 8 days by biochemical analysis; type: functional, organism-based
[5] = biological target: T3, Peroxisome proliferator-activated receptor gamma (Homo sapiens) (UniProt P37231); experiment: Agonist activity at PPARgamma (unknown origin) incubated for 3 to 16 hrs by pathhunter nuclear hormone receptor assay relative to Troglitazone
T3 sequence (whole entry): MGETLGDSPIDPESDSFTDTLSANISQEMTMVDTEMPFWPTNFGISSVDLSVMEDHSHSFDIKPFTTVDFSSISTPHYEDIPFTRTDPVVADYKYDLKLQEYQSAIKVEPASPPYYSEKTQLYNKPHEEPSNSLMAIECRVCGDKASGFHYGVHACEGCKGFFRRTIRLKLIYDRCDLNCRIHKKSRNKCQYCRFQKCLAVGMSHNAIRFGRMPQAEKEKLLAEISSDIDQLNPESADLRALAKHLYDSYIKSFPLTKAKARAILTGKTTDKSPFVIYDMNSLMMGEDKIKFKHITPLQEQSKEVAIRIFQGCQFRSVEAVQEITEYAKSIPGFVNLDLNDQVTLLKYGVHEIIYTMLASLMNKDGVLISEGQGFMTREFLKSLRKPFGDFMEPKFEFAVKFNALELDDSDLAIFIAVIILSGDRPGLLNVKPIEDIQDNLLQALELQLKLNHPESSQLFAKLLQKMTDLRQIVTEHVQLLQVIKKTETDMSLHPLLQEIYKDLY

[6] = biological target: T4, Peroxisome proliferator-activated receptor delta (Homo sapiens) (UniProt Q03181); experiment: Agonist activity at PPARbeta (unknown origin) incubated for 3 to 16 hrs by pathhunter nuclear hormone receptor assay relative to L-165,041
T4 sequence (whole entry): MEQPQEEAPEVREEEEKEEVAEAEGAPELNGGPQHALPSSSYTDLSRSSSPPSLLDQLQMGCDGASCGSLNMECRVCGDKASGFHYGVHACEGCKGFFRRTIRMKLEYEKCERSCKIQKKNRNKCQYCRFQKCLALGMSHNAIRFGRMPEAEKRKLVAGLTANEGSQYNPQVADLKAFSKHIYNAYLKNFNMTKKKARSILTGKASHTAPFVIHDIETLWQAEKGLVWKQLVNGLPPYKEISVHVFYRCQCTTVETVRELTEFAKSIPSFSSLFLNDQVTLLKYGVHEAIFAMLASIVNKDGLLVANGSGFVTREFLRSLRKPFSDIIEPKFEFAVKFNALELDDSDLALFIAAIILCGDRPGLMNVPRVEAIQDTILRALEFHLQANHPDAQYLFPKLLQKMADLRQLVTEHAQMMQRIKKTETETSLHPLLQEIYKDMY

Rattus norvegicus [7] = experiment: Hepatoprotective activity in Sprague-Dawley rat assessed as reduction in ANIT-stimulated fibrosis area at 30 mg/kg, ig administered for 8 days by hematoxylin and eosin staining based mopho-metric analysis; type: functional, organism-based
Rattus norvegicus [8] = experiment: Hepatoprotective activity in Sprague-Dawley rat assessed as reduction in ANIT-stimulated inflammatory score at 20 mg/kg, ig administered for 8 days by hematoxylin and eosin staining based mopho-metric analysis; type: functional, organism-based
Rattus norvegicus [9] = experiment: Hepatoprotective activity in Sprague-Dawley rat assessed as reduction in ANIT-stimulated fibrosis area at 20 mg/kg, ig administered for 8 days by hematoxylin and eosin staining based mopho-metric analysis; type: functional, organism-based
Rattus norvegicus [10] = experiment: Hepatoprotective activity in Sprague-Dawley rat assessed as reduction in ANIT-stimulated total bilirubin level at 20 mg/kg, ig administered for 8 days by biochemical analysis; type: functional, organism-based
[11] = biological target: PPAR delta/gamma (Homo sapiens) (UniProt P37231+Q03181); experiment: Selectivity index, ratio of EC50 of PPARgamma (unknown origin) to EC50 of PPARdelta (unknown origin); type: protein assay
[12] = biological target: T5, Peroxisome proliferator-activated receptor gamma (Homo sapiens, UniProt P37231); experiment: Agonist activity at PPARgamma (unknown origin) incubated for 3 to 16 hrs by pathhunter nuclear hormone receptor assay
T5 sequence (P37231 whole entry): T3 sequence (whole entry)

[13] = biological target: T2, Peroxisome proliferator-activated receptor alpha (Homo sapiens); experiment: Potency index, ratio of EC50 of GFT505 to ratio of EC50 of compound for agonist activity at PPARalpha (unknown origin) incubated for 3 to 16 hrs by pathhunter nuclear hormone receptor assay
Homo sapiens = organism: Homo sapiens; experiment: Selectivity index, ratio of EC50 of PPARgamma (unknown origin) to EC50 of PPARalpha (unknown origin)
[14] = biological target: T6, Peroxisome proliferator-activated receptor delta (Homo sapiens, UniProt Q03181); experiment: Agonist activity at PPARbeta (unknown origin) incubated for 3 to 16 hrs by pathhunter nuclear hormone receptor assay
T6 sequence (Q03181 whole entry): T4 sequence (whole entry)

`Cc1cc(Cc2onc3c2CCOc2cc(Br)ccc2-3)cc(C)c1OC(C)(C)C(=O)O` gave an EC50 [1] of 3420 nM and an Activity [2] of 85%.

In the case of `Cc1cc(Cc2cnoc2-c2ccc(Br)cc2)cc(C)c1OC(C)(C)C(=O)O`, the EC50 [1] is reported as 2820 nM and the Activity [2] is reported as 78%.

In the case of `Cc1cc(Cc2noc3c2CCOc2cc(Br)ccc2-3)cc(C)c1OC(C)(C)C(=O)O`, the EC50 [1] is reported as 8970 nM and the Activity [2] is reported as 50%.

For `CSc1ccc(C(=O)/C=C/c2cc(C)c(OC(C)(C)C(=O)O)c(C)c2)cc1` [ELAFIBRANOR], the EC50 [1] was 225 nM, the Activity (Rattus norvegicus [3]) was “inactive” and the Activity (Rattus norvegicus [4]) was “Active”. It also gave an Activity [5] of 93%, an Activity [2] of 117% and an Activity [6] of 72%. For the same compound, the Activity (Rattus norvegicus [7]) was “inactive”.

In the case of `CC[C@H]1[C@@H](O)[C@@H]2[C@H](CC[C@]3(C)[C@@H]([C@H](C)CCC(=O)O)CC[C@@H]23)[C@@]2(C)CC[C@@H](O)C[C@@H]12`, the Activity (Rattus norvegicus [8]) is reported as “inactive”, the Activity (Rattus norvegicus [9]) is reported as “inactive” and the Activity (Rattus norvegicus [10]) is reported as “Active”.

With `Cc1cc(CCc2cc(-c3ccc(Br)cc3)on2)cc(C)c1OC(C)(C)C(=O)O` the EC50 [1] was 27 nM, the Ratio EC50 [11] was 91 and the EC50 [12] was 457 nM. The Activity [5] was 78%, the Ratio EC50 [13] was 8 to 28 and the Activity [2] was 134%. The Activity [6] was 73%, the Ratio EC50 (Homo sapiens) was 17 and the EC50 [14] was 5 nM.

`Cc1cc(Cc2cc(-c3ccccc3)on2)cc(C)c1OC(C)(C)C(=O)O` gave an EC50 [1] of 385 nM and an Activity [2] of 85%.

With `CCCc1c(OCCCOc2ccc(OCC(=O)O)cc2)ccc(C(C)=O)c1O` the EC50 [14] was 61 nM.

Compound `Cc1cc(-c2cc(-c3ccc(Br)cc3)on2)cc(C)c1OC(C)(C)C(=O)O` has an EC50 [1] greater than 10000 nM and an Activity [2] of 5%.
